In PubChem BioAssay (NCI):
Where “and” joins values, the source holds several entries; their conditions need not be identical. Identical values can stand only once.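 A five-concentration, 48-hour dose response in 96-well plates underlies each endpoint, interpolated linearly between surrounding concentrations. Abbreviation: GI50, concentration required for 50% inhibition of growth. The concentration for full growth arrest is given as TGI.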

How the values were obtained:
Test in all cases: NCI tumour cell line growth inhibition, 48 h
DU-145 prostate = tested on: DU-145 prostate
MCF7 breast = tested on: MCF7 breast
HS 578T breast = tested on: HS 578T breast
NCI/ADR-RES ovarian = tested on: NCI/ADR-RES ovarian
MDA-MB-231 breast = tested on: MDA-MB-231 breast
MDA-MB-435 = tested on: MDA-MB-435
T-47D breast = tested on: T-47D breast

SMILES | GI50 (DU-145 prostate) | TGI (DU-145 prostate) | GI50 (MCF7 breast) | TGI (MCF7 breast) | GI50 (HS 578T breast) | TGI (HS 578T breast) | GI50 (NCI/ADR-RES ovarian) | TGI (NCI/ADR-RES ovarian) | GI50 (MDA-MB-231 breast) | TGI (MDA-MB-231 breast) | GI50 (MDA-MB-435) | TGI (MDA-MB-435) | GI50 (T-47D breast) | TGI (T-47D breast)
Cc1cc2c(cc1Cl)S/C(=C/C(=O)O)C(Nc1cccc3nsnc13)=NS2(=O)=O | > 16 µM | > 57.3 µM | 32.7 µM | > 76.2 µM | 30.5 µM | > 60.7 µM | > 40.2 µM | > 58.9 µM | 47.4 µM | > 69.4 µM | 56.2 µM | > 71 µM | > 77.8 µM | > 100 µM
O=C(NCCN1CCNCC1)c1ccc(Nc2nc3ccccc3c3occc23)cc1 | 3.44 µM | 12.5 µM | 30.2 µM | > 100 µM | 14.3 µM | 38.4 µM | 21 µM | 46.5 µM | 11.8 µM | 25.8 µM | 3.1 µM | 8.51 µM | 5.71 µM | 35.4 µM
COc1cccc(COc2cc(-n3cnc4ccccc43)sc2C(N)=O)c1 | > 10.3 µM | > 25 µM | 1.08 µM | > 25 µM | > 17.7 µM | > 25 µM | 1.75 µM | > 25 µM | 14.8 µM | > 25 µM | 1.3 µM | > 25 µM | > 25 µM | > 25 µM
c1ccc(-c2nc(N3CCCNCC3)c3nc(-c4ccccc4)oc3n2)cc1 | 1.8 µM | 3.26 µM | 1.67 µM | 3.34 µM | 1.86 µM | 3.94 µM | 1.91 µM | 3.86 µM | 1.72 µM | 3.21 µM | 1.64 µM | 3.08 µM | 1.78 µM | 3.64 µM
COc1ccc(-c2cnoc2-c2cc(OC)c3c(c2)OCCO3)cc1 | 0.0456 µM | > 46.9 µM | 0.0304 µM | > 100 µM | 0.0283 µM | 11.7 µM | < 0.0132 µM | 49.5 µM | 0.0509 µM | – | – | – | – | –
O=C(Cl)C1=C(c2ccccc2)C1c1ccccc1 (centres undefined) | – | > 100 µM | – | > 100 µM | – | > 100 µM | – | – | – | > 100 µM | – | > 100 µM | – | > 100 µM
Clc1ccc2c(c1)N(c1ncnc3ccc(-c4cnc5[nH]ncc5c4)cc13)CC2 | 0.351 µM | > 100 µM | 0.228 µM | > 100 µM | 0.162 µM | 0.651 µM | – | – | 0.719 µM | > 100 µM | 0.804 µM | > 100 µM | 0.0424 µM | 0.693 µM
CCOc1ccc(Nc2c3ccccc3nc3ccccc23)cc1 | 0.843 µM and 1.01 µM | 9.34 µM and 6.59 µM | 0.318 µM and 0.297 µM | 4.2 µM and 4.23 µM | 1.23 µM and 0.29 µM | – | 0.271 µM and 0.117 µM | 0.588 µM | 1.91 µM and 0.959 µM | 9.67 µM and 14.5 µM | 0.0382 µM and 0.0574 µM | 0.359 µM and 0.279 µM | 1.34 µM and 0.916 µM | 3.78 µM and 3.83 µM
Fc1ccc2nc(-c3cc(-c4ccc5c(c4)OCO5)n[nH]3)[nH]c2c1 | 5.84 µM | > 53.1 µM | 3.84 µM | > 100 µM | 9.53 µM | > 100 µM | 3.99 µM | > 100 µM | 2.01 µM | 6.59 µM | 4.49 µM | > 71.7 µM | 3.31 µM | 52.1 µM
O=C1c2cccc3cccc(c23)C(=O)N1O | – | > 100 µM | – | > 100 µM | – | > 100 µM | – | > 100 µM | – | > 100 µM | – | > 100 µM | – | > 100 µM
O=[N+]([O-])c1ccc(-c2cc3c(Nc4ccc(Cl)c(C(F)(F)F)c4)ncnc3s2)cc1 | 1.63 µM | > 100 µM | 0.982 µM | > 100 µM | – | – | 1.36 µM | > 100 µM | 0.382 µM | 1.63 µM | 2.24 µM | > 100 µM | 0.407 µM | 6.1 µM
CC1c2ccccc2N=C2SC(=S)N3CCN=C3N21 (centres undefined) | > 100 µM | > 100 µM | > 100 µM | > 100 µM | – | – | > 100 µM | > 100 µM | > 100 µM | > 100 µM | > 100 µM | > 100 µM | > 100 µM | > 100 µM
O=C1/C(=C/c2cccc([N+](=O)[O-])c2)Sc2scc(-c3ccc([N+](=O)[O-])cc3)[n+]21 | – | > 100 µM | – | > 100 µM | – | – | – | 89.2 µM | – | 72.5 µM | – | 37.5 µM | – | > 100 µM
O=C1c2ccccc2-c2c1c1c(NCCCO)nc3ccccc3c1n2Cc1ccccc1 | 16.3 µM | 34.1 µM | 17.2 µM | 31 µM | 40.6 µM | > 100 µM | 18.2 µM | 49.4 µM | 20.7 µM | 42.7 µM | 36 µM | > 100 µM | 21 µM | 46.4 µM
O=C(O)c1ccccc1C(=O)c1ccc2c(c1)Cc1ccccc1-2 | – | > 100 µM | – | > 100 µM | – | > 100 µM | – | > 100 µM | – | > 100 µM | – | > 100 µM | – | > 100 µM
OCc1ccc(N2CCOCC2)cc1Cl | > 100 µM | > 100 µM | 15.8 µM | > 100 µM | > 100 µM | > 100 µM | > 100 µM | > 100 µM | > 100 µM | > 100 µM | > 100 µM | > 100 µM | 14.7 µM | > 84.1 µM
CC(C)Oc1ccc(C(=O)Cn2ccnc2)cc1-n1c(CN2CCN(C(=O)COc3ccc(Cl)cc3)CC2)nc2ccccc2c1=O | 9.59 µM | > 100 µM | 12 µM | 35.5 µM | 15.8 µM | 46.6 µM | > 100 µM | > 100 µM | 4.32 µM | 19.7 µM | 15.6 µM | 33.6 µM | 14.3 µM | > 95.4 µM
C/C1=C\CC[C@@](C)(O)[C@@H]2C[C@H](CC/C(C)=C/CC1)C1(CC1)C(=O)O2 | 41.8 µM | > 100 µM | 66.9 µM | > 100 µM | 22.1 µM | 60 µM | 28.3 µM | > 100 µM | 13.6 µM | 32.6 µM | 16.5 µM | 35.1 µM | 16.7 µM | 67.2 µM
Nc1cc(-c2ccc(Cl)cc2)nn1-c1nnc(/C=C/c2ccco2)c(=O)[nH]1 | 4.5 µM | 28.2 µM | 2.95 µM | 26.1 µM | 10.2 µM | > 64.3 µM | 1.48 µM | 10.5 µM | 11.2 µM | > 100 µM | 5.9 µM | > 100 µM | 5.35 µM | > 66.5 µM
